Results taken from patent US8450373B2, “Alpha ketoamide compounds as cysteine protease inhibitors” (Virobay, Inc., priority 2005, dated 2013).

CC[C@H](NC(=O)[C@H](CCS(C)(=O)=O)N[C@@H](c1ccc(F)cc1)C(F)(F)F)C(=O)C(=O)NC1CC1 [Table I Cpd. 78, N-cyclopropyl-3S-{4-methanesulfonyl-2S-[2,2,2-trifluoro-1S-(4-fluoro-phenyl)-ethylamino]-butyrylamino}-2-oxo-pentanamide]
melting point: 152.5 to 153.5 °C
